Reference: ChEMBL document CHEMBL4184140, “Expanding the tetrahydroquinoline pharmacophore” (Bioorg Med Chem Lett, 2017)
Active and inactive are the calls of the source. The calls are words filed in the database; no cut-off is given here.

Key:
IMR-32 [1] = test: Neurotrophic activity in human IMR32 cells assessed as length of neurite outgrown after 96 hrs by bright field microscopic analysis; type: functional, cell-based
MCF7 = test: Antiproliferative activity against human MCF7 cells; type: functional, cell-based
DU-145 = test: Antiproliferative activity against human DU145 cells; type: functional, cell-based
A549 = test: Antiproliferative activity against human A549 cells; type: functional, cell-based
HepG2 = test: Antiproliferative activity against human HepG2 cells; type: functional, cell-based
IMR-32 [2] = test: Cytotoxicity against human IMR32 cells after 48 hrs by SRB assay; type: cell-based; conditions: IMR-32, 48 h
IMR-32 [3] = test: Neurotrophic activity in human IMR32 cells assessed as increase in BDNF mRNA level at 10 uM by RT-PCR analysis; type: functional, cell-based
IMR-32 [4] = test: Neurotrophic activity in human IMR32 cells assessed as increase in NGF mRNA level at 10 uM by RT-PCR analysis; type: functional, cell-based
IMR-32 [5] = test: Neurotrophic activity in human IMR32 cells assessed as increase in BDNF protein level at 10 uM by Western blot method; type: functional, cell-based
IMR-32 [6] = test: Neurotrophic activity in human IMR32 cells assessed as increase in NGF protein level at 10 uM by Western blot method; type: functional, cell-based
IMR-32 [7] = test: Neurotrophic activity in human IMR32 cells assessed as induction of differentiation at 1 uM after 96 hrs by bright filed microscopic method; type: functional, cell-based
IMR-32 [8] = test: Neurotrophic activity in human IMR32 cells assessed as induction of differentiation at 10 uM after 96 hrs by bright filed microscopic method; type: functional, cell-based
IMR-32 [9] = test: Neurotrophic activity in human IMR32 cells assessed as induction of differentiation at 50 uM after 96 hrs by bright filed microscopic method; type: functional, cell-based
IMR-32 [10] = test: Neurotrophic activity in human IMR32 cells assessed as appearance of neurites at 1 to 10 uM after 96 hrs by bright field microscopic analysis; type: functional, cell-based

Structure (SMILES) | Activity (IMR-32 [1]) | Activity (MCF7) | Activity (DU-145) | Activity (A549) | Activity (HepG2) | IC50 (IMR-32 [2]) | Activity (IMR-32 [3]) | Activity (IMR-32 [4]) | Activity (IMR-32 [5]) | Activity (IMR-32 [6]) | Activity (IMR-32 [7]) | Activity (IMR-32 [8]) | Activity (IMR-32 [9]) | Activity (IMR-32 [10])
C1=C[C@@H]2c3ccccc3N[C@H](c3ccccc3)[C@@H]2C1 | Dose-dependent effect | inactive | inactive | inactive | inactive | > 100 µM | Active | Active | Active | Active | Active | Active |  | 
CC(=O)N1c2ccccc2[C@H]2[C@@H](O)[C@H](N=[N+]=[N-])C[C@H]2[C@H]1c1ccccc1 | Dose-dependent effect | inactive | inactive | inactive | inactive | > 100 µM | Active | Active | Active | Active |  | Active |  | 
COC(=O)C[C@@H]1[C@H](C(=O)OC)c2ccccc2N(C(C)=O)[C@@H]1c1ccccc1 | Dose-dependent effect | inactive | inactive | inactive | inactive | 80.6 µM | Active | Active | Active | Active |  | Active | Active | 
O[C@@H]1[C@@H]2c3ccccc3N[C@H](c3cccc(Br)c3)[C@@H]2C[C@@H]1O | Dose-dependent effect | inactive | inactive | inactive | inactive | > 100 µM | Active | Active | Active | Active |  | Active |  | Active
